Literature values in patent US10596124B2, “Lipid nanoparticle compositions and methods as carriers of cannabinoids in standardized precision-metered dosage forms” (NanoSphere Health Sciences, LLC, priority 2015, dated 2020).

Conditions: intranasal

Structure (SMILES): C=C(C)[C@@H]1CCC(C)=C[C@H]1c1c(O)cc(CCCCC)cc1O [CBD, cannabidiol]
- time to absorption into the systemic circulation: ≤ 10 min
